The source of these data is patent US9371265B2, “Compositions and methods related to inhibitors of JAK kinase” (EP PHARMA, INC., priority 2012, dated 2016).

The test system of assay [1] is CD30. The assay is described as follows: CD30 cell surface expression in SU-DHL-1 cells (flow cytometry). Type of assay: cell-based, human. The note with it: 24 hours. The source says: FIGS. 6A-6B. EP009 treatment disrupts constitutive JAK3/STAT3 pathway activation and down-regulates CD30 cell surface expression in human ALCL cells. (A) Kit225 (lane a), SUP-M2 (lane b), Karpas299 (lane c), DEL (lane d) and SU-DHL-1 (lane e) total cell lysates were separated by 7.5% SDS-PAGE (upper panel) or were immunoprecipitated (IP) with JAK3 antibodies (lower panel) and separated on 7.5% SDS-PAGE, and then subjected to Western blot (WB) analysis with the indicated antibodies. (B) SU-DHL-1 cells were treated with vehicle (PBS; lane a) or increasing amounts of EP009 (0-40 μM; lanes b-e) for 12 hours. Cells were then lysed, clarified, and immunoprecipitated (IP) with anti-JAK3 (α-JAK3), and subjected to Western blot (WB) analysis with anti-phosphotyrosine (α-pY). […] Values represent pSTAT mean fluorescence intensity (MFI) normalized to corresponding GAPDH MFI, while error bars represent the standard deviation (n=2). Statistical significance was determined using Student's t-test. […] Cells were then analyzed by flow cytometry for CD30 expression. […]
Cells were treated in the absence or presence of the indicated concentrations of EP009 for 24 hours, and stained with FITC-labeled mouse anti-human CD30 (Millipore). Stained cells were analyzed by flow cytometry (Cytomics FC500, Beckman Coulter) and quantitated with CXP analysis software version 2.2 (Beckman Coulter) as previously described.24
Background: A flow cytometer gives signals particle by particle.

Assay [2] has as its target AXL (Homo sapiens, UniProt P30530). The assay is described as follows: Kinase panel: AXL. Type of assay: biochemical. The note with it: 10 μM EP009. The method, then:
(§1) Achieving JAK3 selectivity remains a significant challenge in the development of new small molecules for the treatment of cancer and immune-derived diseases. As such, the inventors employed cell-based screening assays of small-molecule libraries based upon the chemical scaffold of the established JAK3 inhibitor NC1153 (Stepkowski et al., J Immunol. (2005), 175(7):4236-4246) EP009 (FIG. 2A) was selected as a lead compound due to improved intrinsic stability (>95% purity in various solvents at 37° C. for 24 hours; FIG. 3) and high-degree of JAK3 selectivity. To test JAK3 versus JAK2 specificity of EP009, the IL-2/JAK3-dependent Kit225, and IL-3/JAK2-dependent BaF/3 cell lines were used. Kit225 and BaF/3 cells growing in the presence of IL-2 or IL-3, respectively, were treated with ascending concentrations of EP009 for 12 hours and cellular JAK3 and JAK2 tyrosine phosphorylation levels detected by Western blot analysis (FIGS. 2B and 2C). Following densitometric analysis, EP009 was determined to dose-dependently reduce IL-2-mediated JAK3 tyrosine phosphorylation with a cellular 50% inhibitory concentration (IC50) between 10 and 20 μM (FIG. 2B). […] To globally evaluate specificity, the inhibitory activity of EP009 was measured against a panel of protein kinases distributed throughout the kinome using the scanEDGE profiling service (KINOMEscan). […]

The target of assay [3] is CSNK1D (Homo sapiens, UniProt P48730). The assay is described as follows: Kinase panel: CSNK1D. In kind it is biochemical. The note with it: 10 μM EP009. The method, then: as §1
Chain of CSNK1D (P48730 whole entry): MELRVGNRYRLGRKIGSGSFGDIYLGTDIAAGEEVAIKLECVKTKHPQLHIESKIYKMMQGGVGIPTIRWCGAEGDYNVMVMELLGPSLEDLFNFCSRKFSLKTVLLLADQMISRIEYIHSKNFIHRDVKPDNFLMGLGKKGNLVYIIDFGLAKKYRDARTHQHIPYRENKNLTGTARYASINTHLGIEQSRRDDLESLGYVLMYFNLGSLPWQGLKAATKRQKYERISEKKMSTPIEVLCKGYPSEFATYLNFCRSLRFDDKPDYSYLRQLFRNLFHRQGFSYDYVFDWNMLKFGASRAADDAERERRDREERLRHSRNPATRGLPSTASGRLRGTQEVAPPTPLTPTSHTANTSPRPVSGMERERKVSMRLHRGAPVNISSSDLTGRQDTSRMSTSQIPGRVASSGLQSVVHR
Assay [4] deals with KIT(V559D, T670I) (Homo sapiens, UniProt P10721, T670I/V559D). The assay is described as follows: Kinase panel: KIT(V559D, T670I). Type of assay: biochemical. The note with it: 10 μM EP009. The method, then: as §1
Chain of KIT(V559D, T670I) (P10721 26-976 V559D/T670I): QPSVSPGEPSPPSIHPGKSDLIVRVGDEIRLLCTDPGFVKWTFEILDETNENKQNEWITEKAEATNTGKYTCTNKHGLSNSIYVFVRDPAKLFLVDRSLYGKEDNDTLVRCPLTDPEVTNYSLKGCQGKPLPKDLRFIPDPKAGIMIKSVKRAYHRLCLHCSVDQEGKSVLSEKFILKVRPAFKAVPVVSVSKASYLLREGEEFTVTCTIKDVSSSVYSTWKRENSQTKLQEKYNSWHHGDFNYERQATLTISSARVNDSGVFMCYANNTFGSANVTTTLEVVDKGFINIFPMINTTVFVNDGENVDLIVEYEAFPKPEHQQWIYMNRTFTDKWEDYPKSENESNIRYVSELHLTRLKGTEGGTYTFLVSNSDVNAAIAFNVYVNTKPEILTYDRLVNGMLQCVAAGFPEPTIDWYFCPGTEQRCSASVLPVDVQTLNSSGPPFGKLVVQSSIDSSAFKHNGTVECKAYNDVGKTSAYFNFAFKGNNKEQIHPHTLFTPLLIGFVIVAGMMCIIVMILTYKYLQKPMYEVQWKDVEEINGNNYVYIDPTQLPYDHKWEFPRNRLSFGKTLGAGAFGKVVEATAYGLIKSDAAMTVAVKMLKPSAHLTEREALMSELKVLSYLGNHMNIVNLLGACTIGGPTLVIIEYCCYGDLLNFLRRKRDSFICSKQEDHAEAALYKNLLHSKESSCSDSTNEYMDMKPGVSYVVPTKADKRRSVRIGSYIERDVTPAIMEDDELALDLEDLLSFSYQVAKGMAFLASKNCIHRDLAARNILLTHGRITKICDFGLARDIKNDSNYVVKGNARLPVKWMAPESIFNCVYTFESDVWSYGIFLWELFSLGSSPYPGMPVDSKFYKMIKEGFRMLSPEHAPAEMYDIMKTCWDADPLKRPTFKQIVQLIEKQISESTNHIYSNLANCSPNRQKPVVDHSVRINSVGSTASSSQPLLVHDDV
Assay [5] deals with MEK2 (Homo sapiens, UniProt P36507). Briefly: Kinase panel: MEK2. Type of assay: biochemical. The settings on record: 10 μM EP009. Here is the method:
as §1

Assay [6] addresses TSSK1B (Homo sapiens, UniProt Q9BXA7). The assay is described as follows: Kinase panel: TSSK1B. Type of assay: biochemical. The note with it: 10 μM EP009. Here is the method: as §1

Chain of AXL (P30530 26-894): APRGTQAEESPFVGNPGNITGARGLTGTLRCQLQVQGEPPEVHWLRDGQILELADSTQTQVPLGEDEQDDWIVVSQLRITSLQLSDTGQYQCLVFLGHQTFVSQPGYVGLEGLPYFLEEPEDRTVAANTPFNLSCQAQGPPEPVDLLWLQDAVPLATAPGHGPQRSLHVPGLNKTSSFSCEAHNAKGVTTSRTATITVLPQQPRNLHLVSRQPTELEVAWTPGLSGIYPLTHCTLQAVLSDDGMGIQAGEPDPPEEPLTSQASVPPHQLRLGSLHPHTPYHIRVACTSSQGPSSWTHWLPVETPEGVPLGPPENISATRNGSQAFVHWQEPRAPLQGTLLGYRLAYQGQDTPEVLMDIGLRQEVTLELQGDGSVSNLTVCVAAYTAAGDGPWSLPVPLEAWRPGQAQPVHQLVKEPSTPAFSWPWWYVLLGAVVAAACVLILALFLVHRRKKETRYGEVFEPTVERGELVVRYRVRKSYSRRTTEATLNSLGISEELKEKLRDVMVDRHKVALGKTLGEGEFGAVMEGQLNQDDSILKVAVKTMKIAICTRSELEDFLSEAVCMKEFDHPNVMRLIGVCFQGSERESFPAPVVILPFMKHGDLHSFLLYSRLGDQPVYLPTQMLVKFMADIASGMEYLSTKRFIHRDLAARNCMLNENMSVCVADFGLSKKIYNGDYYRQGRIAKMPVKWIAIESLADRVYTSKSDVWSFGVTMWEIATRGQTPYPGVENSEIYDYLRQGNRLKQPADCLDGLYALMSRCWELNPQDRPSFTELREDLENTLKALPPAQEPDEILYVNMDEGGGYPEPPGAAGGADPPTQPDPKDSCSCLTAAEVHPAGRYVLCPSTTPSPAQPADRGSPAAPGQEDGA
Chain of TSSK1B (Q9BXA7 whole entry): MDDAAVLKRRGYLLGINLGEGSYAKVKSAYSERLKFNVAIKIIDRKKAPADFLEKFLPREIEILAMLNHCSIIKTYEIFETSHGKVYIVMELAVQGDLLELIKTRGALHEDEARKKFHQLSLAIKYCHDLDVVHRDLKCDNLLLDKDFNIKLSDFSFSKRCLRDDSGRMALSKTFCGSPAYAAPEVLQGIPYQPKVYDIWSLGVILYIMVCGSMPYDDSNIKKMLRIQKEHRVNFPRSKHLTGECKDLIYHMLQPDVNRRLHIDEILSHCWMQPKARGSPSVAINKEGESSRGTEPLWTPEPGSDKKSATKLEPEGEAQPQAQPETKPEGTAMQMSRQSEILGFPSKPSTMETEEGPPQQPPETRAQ
Chain of MEK2 (P36507 whole entry): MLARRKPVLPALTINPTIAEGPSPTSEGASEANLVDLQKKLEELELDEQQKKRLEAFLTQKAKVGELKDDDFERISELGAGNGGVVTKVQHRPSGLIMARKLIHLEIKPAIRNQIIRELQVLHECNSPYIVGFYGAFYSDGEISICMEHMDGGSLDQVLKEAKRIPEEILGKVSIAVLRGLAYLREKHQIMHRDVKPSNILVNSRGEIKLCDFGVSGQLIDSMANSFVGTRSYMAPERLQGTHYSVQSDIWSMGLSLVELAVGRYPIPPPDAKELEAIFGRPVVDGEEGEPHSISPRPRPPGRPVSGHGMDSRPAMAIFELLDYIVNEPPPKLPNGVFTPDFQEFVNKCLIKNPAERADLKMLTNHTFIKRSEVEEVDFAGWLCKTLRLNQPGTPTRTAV

For `C=C1CCCCCCCCCC(CO)C1=O` (stereo not drawn) [EP009, 2-(Hydroxymethyl)-12-methylenecyclododecanone], the “effect on CD30 surface expression” value in assay [1] is recorded as “dose-dependent CD30 down-regulation”. For the same molecule, the “Kinase Activity (% of Control)” value in assay [2] was 96 % of Control; in assay [3] it was 100 % of Control; in assay [4], 94 % of Control; in assay [5] it was 84 % of Control; in assay [6], 98 % of Control.
